The target in the experiment is T1, F508del (Homo sapiens, UniProt P13569, DEL508-508).
T1 construct: expressed in transfected cells
T1 sequence (P13569 with tags, fused parts or gaps DEL508-508): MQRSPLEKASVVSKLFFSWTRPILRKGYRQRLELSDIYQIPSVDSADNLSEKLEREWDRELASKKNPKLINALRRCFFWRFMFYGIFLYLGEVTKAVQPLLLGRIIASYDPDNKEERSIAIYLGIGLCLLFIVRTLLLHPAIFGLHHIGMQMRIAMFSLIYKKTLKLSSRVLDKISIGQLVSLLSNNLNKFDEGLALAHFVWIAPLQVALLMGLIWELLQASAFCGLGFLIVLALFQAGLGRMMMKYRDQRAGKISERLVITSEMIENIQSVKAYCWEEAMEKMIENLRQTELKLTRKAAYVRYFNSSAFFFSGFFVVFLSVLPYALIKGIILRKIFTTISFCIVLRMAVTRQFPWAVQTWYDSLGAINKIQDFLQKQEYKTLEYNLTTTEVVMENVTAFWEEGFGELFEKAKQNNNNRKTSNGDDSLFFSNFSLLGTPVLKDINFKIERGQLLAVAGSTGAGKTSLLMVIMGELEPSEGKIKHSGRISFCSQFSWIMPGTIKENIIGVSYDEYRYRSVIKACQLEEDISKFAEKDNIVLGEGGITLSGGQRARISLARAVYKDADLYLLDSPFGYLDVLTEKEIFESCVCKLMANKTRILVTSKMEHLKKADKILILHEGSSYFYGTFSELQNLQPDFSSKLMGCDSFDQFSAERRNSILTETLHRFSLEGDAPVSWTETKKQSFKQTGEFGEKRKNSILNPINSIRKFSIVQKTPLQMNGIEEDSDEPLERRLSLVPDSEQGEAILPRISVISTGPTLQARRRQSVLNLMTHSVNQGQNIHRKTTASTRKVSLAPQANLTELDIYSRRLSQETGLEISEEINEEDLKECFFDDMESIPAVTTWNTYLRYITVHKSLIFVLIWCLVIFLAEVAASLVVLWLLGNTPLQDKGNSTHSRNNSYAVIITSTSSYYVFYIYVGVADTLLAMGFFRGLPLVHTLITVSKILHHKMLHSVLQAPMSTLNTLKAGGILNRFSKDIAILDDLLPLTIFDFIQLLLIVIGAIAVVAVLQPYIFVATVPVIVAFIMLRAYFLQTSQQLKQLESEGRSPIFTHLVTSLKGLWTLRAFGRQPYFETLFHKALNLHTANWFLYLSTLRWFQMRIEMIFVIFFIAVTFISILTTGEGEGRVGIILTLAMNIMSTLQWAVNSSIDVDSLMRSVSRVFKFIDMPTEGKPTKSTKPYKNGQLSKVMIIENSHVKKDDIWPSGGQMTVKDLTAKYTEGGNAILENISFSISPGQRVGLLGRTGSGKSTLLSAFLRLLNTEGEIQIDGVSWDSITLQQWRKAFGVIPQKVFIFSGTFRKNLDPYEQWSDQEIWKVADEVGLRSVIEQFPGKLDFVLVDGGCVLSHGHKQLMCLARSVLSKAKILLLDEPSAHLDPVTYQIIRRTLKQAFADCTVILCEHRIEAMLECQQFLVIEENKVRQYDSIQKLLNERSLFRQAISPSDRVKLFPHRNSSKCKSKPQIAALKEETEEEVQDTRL
Put plainly: Protocol 1: membrane potential optical assay (FLIPR III, voltage sensing dye), identification of potentiator compounds. Conditions: Table 3, compounds of Table 1. The experiment is classed as cell-based. Summed up:
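Membrane potential in forskolin-activated, temperature-rescued F508del NIH 3T3 cells is followed with a voltage-sensing dye on FLIPR III. A chloride ion gradient created at the single addition step provides the driving force, after prior compound treatment.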
With `Cc1cc(-c2ccc(C(=O)NS(=O)(=O)c3cccnc3N)c(N3C[C@@H](C)CC3(C)C)n2)cnc1OC(C)C` [Compound 1702, N-[(2-amino-3-pyridyl)sulfonyl]-6-(6-isopropoxy-5-methyl-3-pyridyl)-2-[(4S)-2,2,4-trimethylpyrrolidin-1-yl]pyridine-3-carboxamide], the EC30 result is reported as “+++ (“+++” means <3 uM)”.

As for `CC1CN(c2ncc(C3=CC4CCC3(C)C4(C)C)cc2C(=O)NS(=O)(=O)c2cccc(N)n2)C(C)(C)C1` (centres unmarked) [Compound 1544, N-[(6-amino-2-pyridyl)sulfonyl]-5-(4,7,7-trimethyl-3-bicyclo[2.2.1]hept-2-enyl)-2-(2,2,4-trimethylpyrrolidin-1-yl)pyridine-3-carboxamide], the EC30 entry is reported as “+++ (“+++” means <3 uM)”.

`CC(C)COc1cc(F)cc(-c2ccc(C(=O)NS(=O)(=O)c3ccn[nH]3)c(N3C(C)CC(c4ccccc4)C3C)n2)c1` (centres unmarked) [Compound 1348, 2-(2,5-dimethyl-3-phenyl-pyrrolidin-1-yl)-6-(3-fluoro-5-isobutoxy-phenyl)-N-(1H-pyrazol-5-ylsulfonyl)pyridine-3-carboxamide]: the EC30 result is recorded as “+++ (“+++” means <3 uM)”.

`Cc1cc(C)c(CN2Cc3ccccc3C2(C)C(=O)NS(=O)(=O)c2ccccc2)c(C)c1` (centres unmarked) [Compound 873, N-(benzenesulfonyl)-1-methyl-2-[(2,4,6-trimethylphenyl)methyl]isoindoline-1-carboxamide]: the EC30 result is listed as “+++ (“+++” means <3 uM)”.

Turning to `CC(C)COc1cc(F)cc(-c2ccc(C(=O)NS(=O)(=O)c3cccc(N)n3)c(OCC3CCCCC3)n2)c1` [Compound 1395, N-[(6-amino-2-pyridyl)sulfonyl]-2-(cyclohexylmethoxy)-6-(3-fluoro-5-isobutoxy-phenyl)pyridine-3-carboxamide], the EC30 result is “+++ (“+++” means <3 uM)”.

For the compound `CC(C)COc1cc(F)cc(-c2ccc(C(=O)NS(=O)(=O)c3cccc(N)n3)c(OC3(Cc4ccccc4)CCC3)n2)c1` [Compound 1479, N-[(6-amino-2-pyridyl)sulfonyl]-2-(1-benzylcyclobutoxy)-6-(3-fluoro-5-isobutoxy-phenyl)pyridine-3-carboxamide], the EC30 result is reported as “+++ (“+++” means <3 uM)”.

As to `Cc1cc(C)c(Cn2nc(C(C)(C)C)cc2C(=O)NS(=O)(=O)c2ccc(CN)cc2)c(C)c1` [Compound 1670, N-[4-(aminomethyl)phenyl]sulfonyl-5-tert-butyl-2-[(2,4,6-trimethylphenyl)methyl]pyrazole-3-carboxamide], the EC30 result is “++ (“++” means between 3 uM and 10 uM)”.

On to `COc1cccnc1S(=O)(=O)NC(=O)C1(C)c2ccccc2CN1Cc1c(C)cc(C)cc1C` (centres unmarked) [Compound 825, N-[(3-methoxy-2-pyridyl)sulfonyl]-1-methyl-2-[(2,4,6-trimethylphenyl)methyl]isoindoline-1-carboxamide], for which the EC30 entry was “++ (“++” means between 3 uM and 10 uM)”.

Turning to `CC(C)CC/C=C/c1cc(C(=O)NS(=O)(=O)c2cccc(N)n2)c(N2C[C@@H](C)CC2(C)C)nc1C(C)(C)C` [Compound 1682, N-[(6-amino-2-pyridyl)sulfonyl]-6-tert-butyl-5-[(E)-5-methylhex-1-enyl]-2-[(4S)-2,2,4-trimethylpyrrolidin-1-yl]pyridine-3-carboxamide], the EC30 entry is on record as “+++ (“+++” means <3 uM)”.

As for `COc1ccc(OC)c(-c2ccc(C(=O)NS(=O)(=O)c3cccc(N)n3)c(Oc3c(C)cc(C)cc3C)n2)c1` [Compound 1225, N-[(6-amino-2-pyridyl)sulfonyl]-6-(2,5-dimethoxyphenyl)-2-(2,4,6-trimethylphenoxy)pyridine-3-carboxamide], the EC30 entry is “+++ (“+++” means <3 uM)”.

`COc1ccc(-c2ccc(C(=O)NS(=O)(=O)c3ccc[nH]c3=O)c(Oc3c(C)cc(C)cc3C)n2)c(F)c1` [Compound 839, 6-(2-fluoro-4-methoxy-phenyl)-N-[(2-oxo-1H-pyridin-3-yl)sulfonyl]-2-(2,4,6-trimethylphenoxy)pyridine-3-carboxamide]: the EC30 result is “++ (“++” means between 3 uM and 10 uM)”.

As to `Cc1cc(C)c(Oc2nc(-c3cccnc3OC(C)C)ccc2C(=O)NS(=O)(=O)c2cccc(N)n2)c(C)c1` [Compound 909, N-[(6-amino-2-pyridyl)sulfonyl]-6-(2-isopropoxy-3-pyridyl)-2-(2,4,6-trimethylphenoxy)pyridine-3-carboxamide], the EC30 entry is given as “+++ (“+++” means <3 uM)”.

Turning to `CCOc1cccc2c1CN(Cc1ccc(OC(C)C)nc1)C2(C)C(=O)NS(=O)(=O)c1cccc(N)n1` (centres unmarked) [Compound 1662, N-[(6-amino-2-pyridyl)sulfonyl]-4-ethoxy-2-[(6-isopropoxy-3-pyridyl)methyl]-1-methyl-isoindoline-1-carboxamide], the EC30 result was “++ (“++” means between 3 uM and 10 uM)”.

For `CC(C)COc1cc(F)cc(-c2ccc(C(=O)NS(=O)(=O)c3cccnc3N)c(N3C[C@@H](C)CC3(C)C)n2)c1` [Compound 1593, N-[(2-amino-3-pyridyl)sulfonyl]-6-(3-fluoro-5-isobutoxy-phenyl)-2-[(4S)-2,2,4-trimethylpyrrolidin-1-yl]pyridine-3-carboxamide], the EC30 result is listed as “+++ (“+++” means <3 uM)”.

For `Cc1cc(C)c(Oc2nc(-c3cc(C)nn3C)ccc2C(=O)NS(=O)(=O)c2cccc(N)n2)c(C)c1` [Compound 938, N-[(6-amino-2-pyridyl)sulfonyl]-6-(2,5-dimethylpyrazol-3-yl)-2-(2,4,6-trimethylphenoxy)pyridine-3-carboxamide], the EC30 result was “++ (“++” means between 3 uM and 10 uM)”.

With `CNc1cccc(S(=O)(=O)NC(=O)c2ccc(-c3ccccc3)nc2Oc2c(C)cc(C)cc2C)n1` [Compound 1032, N-[[6-(methylamino)-2-pyridyl]sulfonyl]-6-phenyl-2-(2,4,6-trimethylphenoxy)pyridine-3-carboxamide], the EC30 entry is given as “+++ (“+++” means <3 uM)”.

For `CCOc1ccc(-c2ccc(C(=O)NS(=O)(=O)c3ccc[nH]c3=O)c(Oc3c(C)cc(C)cc3C)n2)cc1` [Compound 1179, 6-(4-ethoxyphenyl)-N-[(2-oxo-1H-pyridin-3-yl)sulfonyl]-2-(2,4,6-trimethylphenoxy)pyridine-3-carboxamide], the EC30 result was “++ (“++” means between 3 uM and 10 uM)”.

With `COC1CCCN(S(=O)(=O)NC(=O)c2ccc(-c3cc(F)cc(OCC(C)C)c3)nc2N2C[C@@H](C)CC2(C)C)C1` (stereo partly drawn) [Compound 1545, 6-(3-fluoro-5-isobutoxy-phenyl)-N-[(3-methoxy-1-piperidyl)sulfonyl]-2-[(4S)-2,2,4-trimethylpyrrolidin-1-yl]pyridine-3-carboxamide], the EC30 result is on record as “+++ (“+++” means <3 uM)”.

As for `CCc1ccc(C(=O)NS(=O)(=O)c2cccc(N)n2)c(Oc2c(C)cc(C)cc2C)n1` [Compound 963, N-[(6-amino-2-pyridyl)sulfonyl]-6-ethyl-2-(2,4,6-trimethylphenoxy)pyridine-3-carboxamide], the EC30 entry is “++ (“++” means between 3 uM and 10 uM)”.

Turning to `CC(C)COc1cc(F)cc(-c2ccc(C(=O)NS(=O)(=O)c3cccc(N)n3)c(OC3C[C@@H]4C[C@@H]4C3)n2)c1` (stereo partly drawn) [Compound 1077, N-[(6-amino-2-pyridyl)sulfonyl]-2-[[(1R,5S)-3-bicyclo[3.1.0]hexanyl]oxy]-6-(3-fluoro-5-isobutoxy-phenyl)pyridine-3-carboxamide], the EC30 result was “+++ (“+++” means <3 uM)”.
